In PubChem BioAssay (NCI):
Values joined by “and” are separate entries in the source; they are usually repeats but may differ in a detail not shown here. Equal values may be shown once.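 Growth conditions: 96-well plates. Treatment: test compound, 48 hours, 5 concentrations. Analysis: linear interpolation between bracketing concentrations; unreached endpoints set to highest concentration. At the GI50, growth is halved. TGI is the concentration that stops growth completely.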

Assays:
Experiment in all cases: NCI-60 cell line screen, 48 h
A498 renal = tested on: A498 renal
ACHN renal = tested on: ACHN renal
DMS 114 small cell lung = tested on: DMS 114 small cell lung
M19-MEL melanoma = tested on: M19-MEL melanoma
OVCAR-8 ovarian = tested on: OVCAR-8 ovarian
RPMI-8226 leukemia = tested on: RPMI-8226 leukemia
SK-OV-3 ovarian = tested on: SK-OV-3 ovarian
SNB-19 CNS = tested on: SNB-19 CNS
HS 578T breast = tested on: HS 578T breast

With `C=CCn1c2c(sc1=S)C(S)N=CN2` (centres undefined) the TGI (A498 renal) was > 100 µM, the TGI (ACHN renal) was > 100 µM and the TGI (DMS 114 small cell lung) was > 100 µM. The TGI (M19-MEL melanoma) was > 100 µM, the TGI (OVCAR-8 ovarian) was > 100 µM and the TGI (RPMI-8226 leukemia) was > 100 µM. For the same compound, the TGI (SK-OV-3 ovarian) was > 100 µM and the TGI (SNB-19 CNS) was > 100 µM.

`CCOC(=O)Cn1c(=O)n(C)c(=O)c2c1ncn2Cc1ccccc1` was tested, and the TGI (A498 renal) was > 100 µM, the TGI (ACHN renal) was > 100 µM and the TGI (DMS 114 small cell lung) was > 100 µM. For the same compound, the TGI (M19-MEL melanoma) was > 100 µM, the TGI (OVCAR-8 ovarian) was > 100 µM and the TGI (RPMI-8226 leukemia) was > 100 µM. The TGI (SK-OV-3 ovarian) was > 100 µM and the TGI (SNB-19 CNS) was > 100 µM.

With `O=C1C(=O)N(c2cc(Cl)ccc2Cl)C(=O)C(=O)C1c1nc2ccccc2o1` the TGI (A498 renal) was > 100 µM, the TGI (ACHN renal) was > 100 µM and the TGI (DMS 114 small cell lung) was > 100 µM. For the same compound, the TGI (M19-MEL melanoma) was > 100 µM, the TGI (OVCAR-8 ovarian) was > 100 µM and the TGI (RPMI-8226 leukemia) was > 100 µM. The TGI (SK-OV-3 ovarian) was > 100 µM and the TGI (SNB-19 CNS) was > 100 µM.

With `COC(=O)/C(=C\c1ccc(N(CCC#N)CCC#N)cc1)NC(=O)c1cc([N+](=O)[O-])ccc1Cl` the TGI (A498 renal) was > 100 µM, the TGI (ACHN renal) was > 100 µM and the TGI (DMS 114 small cell lung) was > 100 µM. The TGI (M19-MEL melanoma) was > 100 µM, the TGI (OVCAR-8 ovarian) was > 100 µM and the TGI (RPMI-8226 leukemia) was > 100 µM. For the same compound, the TGI (SK-OV-3 ovarian) was > 100 µM and the TGI (SNB-19 CNS) was > 100 µM.

For `CCOc1ccccc1NC(=O)C(C#N)C1=C(Cl)C(=O)c2ccccc2C1=O` (centres undefined), the TGI (A498 renal) was 36.5 µM, the TGI (ACHN renal) was 3.26 µM and 3.52 µM and the GI50 (DMS 114 small cell lung) was 1660 nM. For the same compound, the TGI (DMS 114 small cell lung) was 2.16 µM and 3.85 µM, the GI50 (M19-MEL melanoma) was 303 nM and the TGI (M19-MEL melanoma) was 0.351 µM and 0.872 µM. For the same compound, the GI50 (OVCAR-8 ovarian) was 1920 nM, the TGI (OVCAR-8 ovarian) was 2.06 µM and 4.59 µM and the GI50 (RPMI-8226 leukemia) was 3.34 µM. For the same compound, the TGI (SK-OV-3 ovarian) was 41.5 µM, the GI50 (SNB-19 CNS) was 3.07 µM and the TGI (SNB-19 CNS) was 3.6 µM and 10.2 µM.

With `OCC(O)CNc1ccnc2cc(Cl)ccc12` (centres undefined) the TGI (A498 renal) was > 100 µM, the TGI (ACHN renal) was > 100 µM and the TGI (DMS 114 small cell lung) was > 100 µM. The TGI (M19-MEL melanoma) was > 100 µM, the TGI (OVCAR-8 ovarian) was > 100 µM and the TGI (RPMI-8226 leukemia) was > 100 µM. The TGI (SK-OV-3 ovarian) was > 100 µM and the TGI (SNB-19 CNS) was > 100 µM.

For `Cc1cc(C(C)(C)C)cc(Cc2cc(C(C)(C)C)cc(Cc3cc(C(C)(C)C)cc(C)c3O)c2O)c1O`, the TGI (A498 renal) was 45.1 µM, the TGI (DMS 114 small cell lung) was 12.1 µM and the TGI (M19-MEL melanoma) was 11.1 µM. For the same compound, the TGI (OVCAR-8 ovarian) was 17.6 µM, the TGI (RPMI-8226 leukemia) was 6.44 µM and the TGI (SK-OV-3 ovarian) was 27.9 µM. It also gave a TGI (SNB-19 CNS) of 26 µM.

Compound `CC(=O)OC1C2CCC1C1C2C2(Cl)C(Cl)=C(Cl)C1(Cl)C2(Cl)Cl` (centres undefined) has a TGI (A498 renal) of 27 µM, a TGI (ACHN renal) of 25.9 µM and a TGI (DMS 114 small cell lung) of 26.7 µM. For the same compound, the TGI (M19-MEL melanoma) was 27.7 µM, the TGI (OVCAR-8 ovarian) was 29.6 µM and the TGI (RPMI-8226 leukemia) was 27.4 µM. For the same compound, the TGI (SK-OV-3 ovarian) was 35.3 µM and the TGI (SNB-19 CNS) was 28.6 µM.

`COC1=C(Br)C(=O)c2nc(C)ccc2C1=O` gave a TGI (A498 renal) of 36.4 µM, a TGI (ACHN renal) of 24 µM and a TGI (DMS 114 small cell lung) of 31.6 µM. For the same compound, the TGI (M19-MEL melanoma) was 27.8 µM, the TGI (OVCAR-8 ovarian) was 16.6 µM and the TGI (RPMI-8226 leukemia) was > 22.6 µM. For the same compound, the TGI (SK-OV-3 ovarian) was 33.6 µM and the TGI (SNB-19 CNS) was > 55.1 µM.

In the case of `O=S1(=O)OCCOS(=O)(=O)C1Cl`, the TGI (A498 renal) is reported as > 100 µM, the TGI (DMS 114 small cell lung) is reported as > 100 µM and the TGI (M19-MEL melanoma) is reported as > 100 µM. The TGI (OVCAR-8 ovarian) was > 100 µM, the TGI (RPMI-8226 leukemia) was > 100 µM and the TGI (SK-OV-3 ovarian) was > 100 µM. For the same compound, the TGI (SNB-19 CNS) was > 100 µM.

In the case of `CC(=O)OCCOCNC(=S)N/N=C/c1ccc(Br)s1`, the TGI (A498 renal) is reported as > 100 µM, the TGI (ACHN renal) is reported as > 100 µM and the TGI (DMS 114 small cell lung) is reported as > 100 µM. The TGI (M19-MEL melanoma) was > 100 µM, the TGI (OVCAR-8 ovarian) was > 100 µM and the TGI (RPMI-8226 leukemia) was > 100 µM. For the same compound, the TGI (SK-OV-3 ovarian) was > 100 µM and the TGI (SNB-19 CNS) was > 100 µM.

With `CCN(CC)CCNC(=O)c1ccc(C)c(OCc2ccccc2)c1[N+](=O)[O-]` the TGI (A498 renal) was > 82.8 µM, the TGI (ACHN renal) was > 89.6 µM and the TGI (DMS 114 small cell lung) was > 65.7 µM. The TGI (HS 578T breast) was > 63.6 µM, the TGI (M19-MEL melanoma) was 32.7 µM and the TGI (OVCAR-8 ovarian) was > 100 µM. The TGI (RPMI-8226 leukemia) was 72.6 µM, the TGI (SK-OV-3 ovarian) was > 75.9 µM and the TGI (SNB-19 CNS) was > 100 µM.
